Measured values reported in publication PMC10247784, “Physiological activation of human and mouse bitter taste receptors by bile acids” (Communications Biology, 2023).

Target: T1, mouse Tas2r117 (Mus musculus, UniProt Q7M715)
T1 construct: expressed in transfected cells; host or cells: HEK293T-Gα16gust44
T1 sequence (Q7M715 1-330): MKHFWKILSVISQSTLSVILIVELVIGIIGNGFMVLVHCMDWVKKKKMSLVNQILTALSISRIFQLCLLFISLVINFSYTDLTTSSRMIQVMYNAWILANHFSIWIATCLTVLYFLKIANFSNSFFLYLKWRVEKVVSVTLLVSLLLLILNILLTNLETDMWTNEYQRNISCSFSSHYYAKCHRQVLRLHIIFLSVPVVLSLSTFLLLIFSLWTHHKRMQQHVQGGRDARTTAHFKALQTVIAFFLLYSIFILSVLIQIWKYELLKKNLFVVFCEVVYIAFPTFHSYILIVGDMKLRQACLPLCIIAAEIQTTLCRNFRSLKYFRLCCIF
Test: Calcium imaging assay (FLIPR), HEK293T-Gα16gust44 cells transfected with mouse Tas2r117
Assay type: cell-based
Conditions: for Δ F/F: Tas2r117; for RLU: sheet Tas2r117, time trace
Experimental: This set of bile acids was chosen because of their commercial availability in high purities, their diversity within the class of bile acids and their previous detection and quantitation in human blood. Stock solutions were prepared in DMSO.
As basal growth medium for the HEK293T-Gα16gust44 cell line[17],[59] served Dulbecco’s modified eagle medium (DMEM) (Thermo Fisher Scientific, Darmstadt, Germany) supplemented with 10 % fetal bovine serum (Sigma-Aldrich, Steinheim, Germany), 2 mM L-glutamine (Sigma-Aldrich, Steinheim, Germany), 100 units/ml penicillin (Sigma Aldrich, Steinheim, Germany) and 100 µg/ml streptomycin (Sigma Aldrich, Steinheim, Germany). Growth conditions were 37 °C, 5 % CO2 and saturated air-humidity[60].
HEK293T-Gα16gust44 cells were seeded on poly-D-lysine (10 µg/ml) coated 96-well plates to reach a confluence of 40-60 % the next day. For transient transfection 150 ng of plasmid DNA containing the receptor of interest and 0.3 µl lipofectamine 2000 (Thermo Fisher Scientific, Darmstadt, Germany) per well were used and transfection took place according to the manual of lipofectamine 2000. […] The empty vector DNA (mock) was transfected as negative control[14],[41].
Cells were loaded using the calcium-sensitive fluorescent dye Fluo-4-AM (Abcam, Cambridge, Great Britain) in the presence of 2.5 mM probenecid (Sigma-Aldrich, Steinheim, Germany) the day after transfection[13],[41]. 1 h after loading, cells were washed with C1 buffer using a BioTek Cell Washer, incubated in the dark for half an hour and washed again. For automated agonist application and measurement of fluorescence changes, a FLIPR^TETRA device (Molecular Devices, San José, United States) was used. Viability of cells was tested by application of 100 nM Somatostatin 14 (Bachem, Bubendorf, Switzerland)[42].
Measured data were negative control corrected by subtracting the signal of the mock-transfected cells and exported to Microsoft Excel using the FLIPR software ScreenWorks 4.2. In Microsoft Excel software, standardization of maximum fluorescence intensities to the basal fluorescence and normalization to the buffer-only control was done to calculate the relative fluorescence changes (ΔF/F).
Initial screening experiments performed in duplicate wells were confirmed by at least one replication and representative traces were selected for display. All dose-response relationships were determined by three independent experiments (biological replicates) performed in duplicates (technical replicates). Threshold concentrations, defined as lowest substance concentrations leading to statistically significant elevated fluorescence changes in receptor-transfected cells compared with empty vector-transfected cells, were determined using SigmaPlot with Student’s t-test to evaluate statistical significance (p < 0.01).

C[C@H](CCC(=O)NCC(=O)O)[C@H]1CC[C@H]2[C@@H]3[C@H](O)C[C@@H]4C[C@H](O)CC[C@]4(C)[C@H]3C[C@H](O)[C@]12C [Glycocholic Acid, glycocholic acid]
Δ F/F (conc. 0,01 mM): 0.04745 | Δ F/F (conc. 0,1 mM): 0.1208 | Δ F/F (conc. 0,03 mM): 0.08527 | Δ F/F (conc. 0,3 mM): 0.126 | Δ F/F (conc. 0,0003 mM): 0.0009082 | Δ F/F (conc. 0,001 mM): -0.007003 | Δ F/F (conc. 0,003 mM): 0.01508 | RLU (Time (s) 0): 0 RLU | RLU (Time (s) 2): -1.6624 RLU | RLU (Time (s) 4): 36.4597 RLU | RLU (Time (s) 6): 6 RLU | RLU (Time (s) 8): 8.49 RLU | RLU (Time (s) 12): -1.574 RLU | RLU (Time (s) 14): -17.8222 RLU | RLU (Time (s) 16): -9.405 RLU | RLU (Time (s) 18): -10.6465 RLU | RLU (Time (s) 18.797): -31.8582 RLU | RLU (Time (s) 20.797): -50.2175 RLU | RLU (Time (s) 22.797): -35.3697 RLU | RLU (Time (s) 24.797): -21.9519 RLU | RLU (Time (s) 26.797): 21.3834 RLU | RLU (Time (s) 28.797): 104.133 RLU | RLU (Time (s) 30.797): 136.733 RLU | RLU (Time (s) 32.797): 195.234 RLU | RLU (Time (s) 34.797): 290.459 RLU | RLU (Time (s) 36.797): 340.932 RLU | RLU (Time (s) 38.797): 397.791 RLU | RLU (Time (s) 40.797): 414.428 RLU | RLU (Time (s) 42.797): 437.759 RLU | RLU (Time (s) 44.797): 439.85 RLU | RLU (Time (s) 46.797): 450.862 RLU | RLU (Time (s) 48.797): 498.067 RLU | RLU (Time (s) 50.797): 490.971 RLU | RLU (Time (s) 52.797): 511.962 RLU | RLU (Time (s) 54.797): 520.574 RLU | RLU (Time (s) 56.797): 524.281 RLU | RLU (Time (s) 58.797): 554.582 RLU | RLU (Time (s) 60.797): 523.267 RLU | RLU (Time (s) 62.797): 554.128 RLU | RLU (Time (s) 64.797): 560.589 RLU | RLU (Time (s) 66.797): 586.355 RLU | RLU (Time (s) 68.797): 595.813 RLU | RLU (Time (s) 70.797): 569.01 RLU | RLU (Time (s) 72.797): 587.543 RLU | RLU (Time (s) 74.797): 600.561 RLU | RLU (Time (s) 76.797): 625.108 RLU | RLU (Time (s) 78.797): 601.569 RLU | RLU (Time (s) 80.797): 601.653 RLU | RLU (Time (s) 82.797): 613.098 RLU | RLU (Time (s) 84.797): 590.202 RLU | RLU (Time (s) 86.797): 586.509 RLU | RLU (Time (s) 88.797): 591.824 RLU | RLU (Time (s) 90.797): 608.043 RLU | RLU (Time (s) 92.797): 567.854 RLU | RLU (Time (s) 94.797): 592.934 RLU | RLU (Time (s) 96.797): 555.343 RLU | RLU (Time (s) 98.797): 591.525 RLU | RLU (Time (s) 100.797): 565.961 RLU | RLU (Time (s) 102.797): 558.057 RLU | RLU (Time (s) 104.797): 568.873 RLU | RLU (Time (s) 106.797): 600.41 RLU | RLU (Time (s) 108.797): 557.119 RLU | RLU (Time (s) 110.797): 566.614 RLU | RLU (Time (s) 112.797): 544.906 RLU | RLU (Time (s) 114.797): 533.624 RLU | RLU (Time (s) 116.797): 578.387 RLU | RLU (Time (s) 118.797): 540.575 RLU | RLU (Time (s) 120.797): 553.404 RLU | RLU (Time (s) 122.797): 531.136 RLU | RLU (Time (s) 124.797): 541 RLU | RLU (Time (s) 126.797): 530.303 RLU | RLU (Time (s) 128.797): 505.327 RLU | RLU (Time (s) 130.797): 508.223 RLU | RLU (Time (s) 132.797): 529.676 RLU | RLU (Time (s) 134.797): 490.998 RLU | RLU (Time (s) 136.797): 480.544 RLU | RLU (Time (s) 137.562): 494.151 RLU | RLU (Time (s) 143.578): 475.248 RLU | RLU (Time (s) 149.578): 448.977 RLU | RLU (Time (s) 155.578): 429.963 RLU | RLU (Time (s) 161.578): 410.536 RLU | RLU (Time (s) 167.578): 411.276 RLU | RLU (Time (s) 173.578): 378.737 RLU | RLU (Time (s) 179.578): 356.849 RLU | RLU (Time (s) 191.578): 338.845 RLU | RLU (Time (s) 197.578): 316.205 RLU | RLU (Time (s) 209.578): 296.441 RLU | RLU (Time (s) 221.578): 181.834 RLU | RLU (Time (s) 233.578): 175.03 RLU | RLU (Time (s) 239.578): 155.758 RLU | RLU (Time (s) 245.578): 143.461 RLU | RLU (Time (s) 293.578): 87.8538 RLU | RLU (Time (s) 299.578): 79.8727 RLU | RLU (Time (s) 305.578): 78.6198 RLU | RLU (Time (s) 311.578): 69.0671 RLU | RLU (Time (s) 317.578): 91.9062 RLU | RLU (Time (s) 323.578): 87.6118 RLU | RLU (Time (s) 329.578): 65.9416 RLU | RLU (Time (s) 335.578): 41.2589 RLU | RLU (Time (s) 341.578): 94.1086 RLU | RLU (Time (s) 347.578): 67.2353 RLU | RLU (Time (s) 353.578): 54.4225 RLU | RLU (Time (s) 359.578): 85.0918 RLU | EC50 (calculated where receptor saturation was reached, read-out: EC50 Tas2r117): 16 ± 2.5 µM | Activation threshold concentration Tas2r117 (p < 0.01 vs empty vector): 3 µM
